Values quoted from earlier work, collected in article PMC4763008, “Selective Inhibition of Bakuchicin Isolated from Psoralea corylifolia on CYP1A in Human Liver Microsomes” (Evidence-based Complementary and Alternative Medicine : eCAM, 2016).

Assays:
[1] = system: CYP1A; conditions: rat liver microsomes ref 17; cited from earlier work
[2] = biological target: T1, CYP1A (Homo sapiens, UniProt P05177); conditions: human liver microsomes ref 17; cited from earlier work
T1 sequence (P05177 2-516): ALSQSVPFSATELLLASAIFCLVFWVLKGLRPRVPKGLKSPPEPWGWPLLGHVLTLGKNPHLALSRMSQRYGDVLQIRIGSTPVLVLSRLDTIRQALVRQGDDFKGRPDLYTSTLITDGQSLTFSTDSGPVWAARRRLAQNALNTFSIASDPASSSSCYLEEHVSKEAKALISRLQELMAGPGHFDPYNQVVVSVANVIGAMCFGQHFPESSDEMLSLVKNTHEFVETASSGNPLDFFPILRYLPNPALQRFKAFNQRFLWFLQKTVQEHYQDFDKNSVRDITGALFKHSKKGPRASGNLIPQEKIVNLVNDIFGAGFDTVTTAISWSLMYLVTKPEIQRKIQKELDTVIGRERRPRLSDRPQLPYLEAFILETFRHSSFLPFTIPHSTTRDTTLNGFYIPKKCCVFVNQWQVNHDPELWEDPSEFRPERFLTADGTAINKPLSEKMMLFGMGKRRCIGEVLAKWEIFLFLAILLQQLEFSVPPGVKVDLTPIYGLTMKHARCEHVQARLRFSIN

Row | SMILES | type of inhibitor [1] | type of inhibitor [2]
1 | O=c1ccc2ccc3occc3c2o1 [isopsoralen] | reversible and time-dependent inhibitor | reversible and time-dependent inhibitor
2 | O=c1ccc2cc3ccoc3cc2o1 [psoralen] | reversible and time-dependent inhibitor | reversible and time-dependent inhibitor
